Measured values taken from patent publication US20250114389A1, “NUCLEOSIDES AND NUCLEOTIDES ANALOGS AS ANTIVIRAL AGENTS” (Emory University, priority 2021, published 2025).

Experiments:
[1] = system: SARS-CoV-2; assay: Anti-SARS-CoV-2 activity in Vero cells (virus yield inhibition); type: cell-based
[2] = type: in vitro ADME; settings: hamster, 10 μM
Experimental: An aliquot of 450 μL of human, mouse or hamster plasma were exposed to 10 μM of compound and incubated at 37° C. At 0, 5, 15, 30, 60, 90 and 120 min, 50 μL of plasma sample was mixed with 200 μL of ice-cold methanol (70%). 50 μL supernatant was dried and reconstituted in 100 μL H2O. Propantheline bromide was used as positive control. The supernatant was then subjected to LC-MS analysis (LC-MS condition: Instrument: Thermo TSQ Quantiva. Column: Kinetex […] (50×2.1 mm, […]). LC buffers: A): 0.1% formic acid, and B): acetonitrile. MRM methods: (269.2-112 positive), Indinavir (IS, 614.4-421.2 positive, IS)). The stability results are shown in FIGS. 2-4 (human plasma, mouse plasma and hamster plasma, respectively). Compound A is stable in human and mouse plasma up to 2 hours and stable up to […] in hamster plasma. Compound 23 was converted to compound A in hamster plasma in less than 5 min.

[3] = system: Caco2 cells; settings: read-out: Cytotoxicity CC50 Caco2
[4] = system: Calu3 cells; settings: read-out: Cytotoxicity CC50 Calu3
[5] = system: SARS-CoV-2; assay: Anti-SARS-CoV-2 activity in Calu3 cells (virus yield inhibition); type: cell-based; settings: Severe acute respiratory syndrome coronavirus 2, Calu-3, Table 1
[6] = system: Vero cells; assay: Cytotoxicity in Vero cells; settings: read-out: Cytotoxicity CC50 Vero; Vero cells
[7] = system: CEM (human lymphoblastoid) cells; assay: Cytotoxicity in CEM cells; type: cell-based
Experimental: (§1) The toxicity of the compounds was assessed in Vero, human PBM, CEM (human lymphoblastoid), MT-2, and HepG2 cells, as described previously (see Schinazi R. F., Sommadossi J.-P., Saalmann V., Cannon D. L., Xie M.-Y., Hart G. C., Smith G. A. & Hahn E. F. Antimicrob. Agents Chemother. 1990, 34, 1061-67). Cycloheximide was included as positive cytotoxic control, and untreated cells exposed to solvent were included as negative controls. The cytotoxicity IC50 was obtained from the concentration-response curve using the median effective method described previously (see Chou T.-C. & Talalay P. Adv. Enzyme Regul. 1984, 22, 27-55; Belen'kii M. S. & Schinazi R. F. Antiviral Res. 1994, 25, 1-11).

[8] = system: SARS-CoV-2; assay: Anti-SARS-CoV-2 activity in Caco2 cells (virus yield inhibition); settings: for EC50: Severe acute respiratory syndrome coronavirus 2, Caco-2, read-out: Anti-SARS-CoV-2 Activity (Caco2) EC50; for EC90: Severe acute respiratory syndrome coronavirus 2, Caco-2, read-out: Anti-SARS-CoV-2 Activity (Caco2) EC90
[9] = system: SARS-CoV-2; assay: Anti-SARS-CoV-2 activity in Calu3 ALI culture; type: cell-based; settings: Severe acute respiratory syndrome coronavirus 2, Calu-3; Calu3 air-liquid interface
[10] = Cytotoxicity in Vero cells; settings: African green monkey, Vero kidney cells
[11] = system: human PBM cells; assay: Cytotoxicity in PBM cells; type: cell-based
Experimental: as §1

[12] = system: Huh7 cells; assay: Cytotoxicity in Huh7 cells; type: cell-based
[13] = system: SARS-CoV-2; assay: Anti-SARS-CoV-2 activity in HAE-ALI culture; type: cell-based; settings: Severe acute respiratory syndrome coronavirus 2; HAE air-liquid interface
[14] = Cytotoxicity in CEM cells; type: cell-based, human; settings: human, CEM lymphoblastoid cells
Experimental: as §1

[15] = Cytotoxicity in PBM cells; type: cell-based, human; settings: human
Experimental: as §1

[16] = Cytotoxicity in Huh7 cells; type: cell-based; settings: human
[17] = system: Omicron; assay: microbe, parasite or virus in culture
[18] = system: Omicron; assay: Anti-Omicron activity in Calu-3; type: cell-based, SARS-CoV-2; settings: Severe acute respiratory syndrome coronavirus 2
[19] = Severe acute respiratory syndrome coronavirus 2, Table 2, read-out: Anti-SARS-CoV-2 activity in Vero cells EC50
[20] = Severe acute respiratory syndrome coronavirus 2, Table 2, read-out: Anti-SARS-CoV-2 activity in Vero cells EC90
[21] = Severe acute respiratory syndrome coronavirus 2, Table 1, read-out: Anti-SARS-CoV-2 Activity (Vero) EC50
[22] = Severe acute respiratory syndrome coronavirus 2, Table 1, read-out: Anti-SARS-CoV-2 Activity (Vero) EC90

Structure (SMILES)	EC50 [5] [µM]	EC90 [5] [µM]	EC50 [1, 21] [µM]	EC90 [1, 22] [µM]	EC50 [8] [µM]	EC90 [8] [µM]	CC50 [10] [µM]	also measured
N#C[C@@]1(n2ncc(N)nc2=O)O[C@H](CO)C(O)C1O (stereo partly shown)	–	–	–	–	–	–	–	EC50 [1, 19]: 4 µM; EC90 [1, 20]: 9.8 µM
CCC(CC)COC(=O)[C@H](C)N[P@](=O)(OC[C@@H]1O[C@](C#N)(c2ccc3c(N)ncnn23)C(O)C1O)Oc1ccccc1 (stereo partly shown)	–	–	–	–	–	–	–	EC50 [1, 19]: < 10 µM
N#C[C@]1(c2ccc3c(N)ncnn23)O[C@@H](CO)C(O)C1O (stereo partly shown)	–	–	–	–	–	–	–	EC50 [1, 19]: > 10 µM
N#C[C@@]1(c2ccc3c(N)ncnn23)O[C@H](CO)C(O)C1O (stereo partly shown)	–	–	–	–	–	–	–	EC50 [1, 19]: < 10 µM
CC(C)C(=O)OC[C@H]1O[C@@](C#N)(n2ccc(N)nc2=O)[C@H](O)[C@@H]1O [Compound 23, ((2R,3S,4R,5R)-5-(4-Amino-2-oxopyrimidin-1(2H)-yl)-5-cyano-3,4-dihydroxytetrahydro-furan-2-yl)methyl isobutyrate]	–	–	–	–	–	–	–	time for conversion to compound A in plasma [2]: less than 5 min
C[C@@H]1C[C@@H]([C@H](O)CC2CC(=O)NC(=O)C2)C(=O)[C@@H](C)C1 [Cyclohexamide]	–	–	–	–	–	–	–	CC50 [3]: 10 µM; CC50 [4]: 10 µM
O=c1nc(NO)ccn1[C@@H]1O[C@H](CO)[C@@H](O)[C@H]1O [NHC, N^4-hydroxycytidine, reference compound]	0.6	2	0.2	0.42	1	> 10	–	CC50 [6]: 16.5 µM; CC50 [7]: 2.6 µM
CCC(CC)COC(=O)[C@H](C)N[P@](=O)(OC[C@H]1O[C@@](C#N)(c2ccc3c(N)ncnn23)[C@H](O)[C@@H]1O)Oc1ccccc1 [Remdesivir, reference compound]	–	0.6	1	3.5	0.004	0.04	> 100	EC50 [9]: 0.9 µM; EC90 [9]: 4.6 µM; CC50 [7]: 12 µM; EC50 [1, 19]: 1.2 µM; EC90 [1, 20]: 3.6 µM; CC50 [11]: 6.4 µM; CC50 [12]: 1.5 µM; EC90 [13]: 1.2 µM
N#C[C@@]1(n2ccc(=O)[nH]c2=O)O[C@H](CO)C(O)C1O (stereo partly shown) [drawing 119]	0.08	0.7	4.7	8.5	0.02	0.2	–	–
CC(C)OC(=O)[C@H](C)N[P@](=O)(OC[C@H]1O[C@@](C#N)(n2ccc(N)nc2=O)C(O)C1O)Oc1ccccc1 (stereo partly shown) [drawing 120]	> 10	> 10	> 10	> 10	0.7	2.1	–	–
CC(C)C(=O)OC[C@H]1O[C@@](C#N)(n2ccc(=O)[nH]c2=O)C(O)C1O (stereo partly shown) [drawing 121]	0.2	0.7	> 10	–	2.1	5.7	–	–
CC(C)C(=O)OC[C@H]1O[C@@](C#N)(n2ccc(N)nc2=O)C(O)C1O (stereo partly shown) [drawing 122]	1.2	4	1.2	2.2	0.5	2.5	–	–
CCCCCCCC(=O)OC[C@H]1O[C@@](C#N)(n2ccc(N)nc2=O)C(O)C1O (stereo partly shown) [drawing 123]	0.2	1.2	0.4	1.1	0.7	1.7	–	–
CC(C)[C@H](N)C(=O)OC1C(O)[C@](C#N)(n2ccc(N)nc2=O)O[C@@H]1CO (stereo partly shown) [drawing 124]	0.3	4.3	2.3	6.6	3.3	8.3	–	–
N#C[C@@]1(n2ccc(=O)[nH]c2=O)O[C@H](CO)C(O)C1O (stereo partly shown) [drawing 130]	–	–	–	–	–	–	> 100	CC50 [14]: 12.1 µM; CC50 [15]: > 100 µM; CC50 [16]: > 100 µM
CC(C)OC(=O)[C@H](C)N[P@](=O)(OC[C@H]1O[C@@](C#N)(n2ccc(N)nc2=O)C(O)C1O)Oc1ccccc1 (stereo partly shown) [drawing 131]	–	–	–	–	–	–	> 100	CC50 [14]: > 100 µM; CC50 [15]: > 100 µM; CC50 [16]: > 100 µM
CC(C)C(=O)OC[C@H]1O[C@@](C#N)(n2ccc(=O)[nH]c2=O)C(O)C1O (stereo partly shown) [drawing 132]	–	–	–	–	–	–	> 100	CC50 [14]: 39 µM; CC50 [15]: > 100 µM; CC50 [16]: 88.9 µM
CC(C)C(=O)OC[C@H]1O[C@@](C#N)(n2ccc(N)nc2=O)C(O)C1O (stereo partly shown) [drawing 133]	–	–	–	–	–	–	73.8	CC50 [14]: 15.8 µM; CC50 [15]: 63.1 µM; CC50 [16]: > 100 µM
CCCCCCCC(=O)OC[C@H]1O[C@@](C#N)(n2ccc(N)nc2=O)C(O)C1O (stereo partly shown) [drawing 134]	–	–	–	–	–	–	45.7	CC50 [14]: 3.7 µM; CC50 [15]: > 100 µM; CC50 [16]: 77.8 µM
CC(C)[C@H](N)C(=O)OC1C(O)[C@](C#N)(n2ccc(N)nc2=O)O[C@@H]1CO (stereo partly shown) [drawing 135]	–	–	–	–	–	–	93.5	CC50 [15]: > 100 µM
N#C[C@@]1(n2ccc(=O)[nH]c2=O)O[C@H](CO)C(O)C1O (stereo partly shown) [drawing 137]	–	–	–	–	–	–	–	EC50 ([17]; Severe acute respiratory syndrome coronavirus 2, Caco-2, read-out: Anti-Omicron Activity (Caco-2) EC50): > 10 µM; EC90 ([17]; Severe acute respiratory syndrome coronavirus 2, Caco-2, read-out: Anti-Omicron Activity (Caco-2) EC90): > 10 µM; EC50 [18]: 3.8 µM; EC90 [18]: > 10 µM
